Assay results: US20230033195A1, “METHODS AND COMPOSITIONS FOR IMPROVING COGNITIVE FUNCTION” (THE JOHNS HOPKINS UNIVERSITY, priority 2011, published 2023)

Assays:
aMCI subjects = assay: explicit 3-alternative forced choice task; assay type: in vivo, human; details: 125 mg twice a day for two weeks, vs placebo, p = 0.039
Text: Each bar represents the proportion of the subjects responses (old, similar, or new) when presented with a lure image.
There are various tests known in the art for assessing cognitive function in humans, for example and without limitation, the clinical global impression of change scale (CIBIC-plus scale); the Mini Mental State Exam (MMSE); the Neuropsychiatric Inventory (NPI); the Clinical Dementia Rating Scale (CDR); the Cambridge Neuropsychological Test Automated Battery (CANTAB); the Sandoz Clinical Assessment-Geriatric (SCAG), the Buschke Selective Reminding Test (Buschke and Fuld, 1974); the Verbal Paired Associates subtest; the Logical Memory subtest; the Visual Reproduction subtest of the Wechsler Memory Scale-Revised (WMS-R) (Wechsler, 1997); or the Benton Visual Retention Test. See Folstein et al., J Psychiatric Res 12: 189-98, (1975); Robbins et al., Dementia 5: 266-81, (1994); Rey, L'examen clinique en psychologie, (1964); Kluger et al., J Geriatr Psychiatry Neurol 12:168-79, (1999); Marquis et al., 2002 and Masur et al., 1994. Another example of a cognitive test in humans is the explicit 3-alternative forced choice task. […]
The activity of the subject's medial temporal lobe is measured by functional MRI during the subject's participation in an explicit 3-alternative forced choice task, where participants view novel, repeated and similar ("lure") stimuli. […]

[1] = system: Age-Impaired (AI) Long-Evans rats; assay: Morris Water Maze (MWM) retention trial, spatial memory retention; assay type: in vivo, rat
Protocol: FIG. 2 depicts the effects of administering levetiracetam on the spatial memory retention of six aged-impaired rats (AI) in a Morris Water Maze (MWM) test. Three treatment conditions were employed: vehicle control, levetiracetam (5 mg/kg/day) and levetiracetam (10 mg/kg/day). The AI rats were trained for two consecutive days, with a one-time treatment prior to the training trials per day. 24 hours later, the AI rats were tested. The time the AI rats, 24 hours after treatment with the different conditions and two days of training, spent swimming in the target quadrant or the target annulus in a memory retention trial is used as a measure of spatial memory retention. The target quadrant refers to the quadrant of the maze (which is a circular pool) where the escape platform is placed during the training trials. The target annulus refers to the exact location of the escape platform during the training trials.
The MWM apparatus consists of a large, circular pool (diameter 1.83 m; height, 0.58 m) filled with water (27° C.) that is made opaque through the addition of non-toxic pigment or some other substance. In the typical "hidden platform" version of the test, rats are trained to find a camouflaged white escape platform (height, 34.5 cm) that is positioned in the center of one quadrant of the maze about 1.0 cm below the water surface. This platform can be retracted to the bottom of the tank or raised to its normal position from outside the maze during behavioral testing. The location of the platform remains constant from trial to trial. Because there are no local cues that mark the position of the platform, the rat's ability to locate it efficiently from any starting position at the perimeter of the pool depends on using information surrounding the maze. The maze is surrounded by black curtains to which white patterns are affixed to provide a configuration of spatial cues. A second platform (height 37.5 cm), with its surface painted black is elevated 2 cm above the water surface during cue training to control for factors unrelated to cognition. The behavior of a rat in the pool is recorded by a camera that is suspended 2.5 m above the center of the pool. The camera is connected to a video tracking system (HVS Image Advanced Tracker VP200) and a PC computer running HVS software developed by Richard Baker of HVS Image, Hampton, UK.
The MWM protocol is optimized for sensitivity to the effects of aging on cognition and for measures of reliable individual differences within the aged population of out-bred Long-Evans rats (Gallagher et al. Behav. Neurosci. 107:618-626, (1993)). […] At the completion of the protocol using the hidden platform, rats are assessed for cue learning using the visible platform. […]

Compound: CC[C@@H](C(N)=O)N1CCCC1=O [levetiracetam, (2S)-2-(2-oxopyrrolidin-1-yl) butanamide]
- performance in the explicit 3-alternative forced choice task (similar vs old responses to lures) (aMCI subjects): improves significantly
- performance (time in target quadrant) compared to vehicle ([1]; 5 mg/kg/day i.p., retention trial 24 h after training): did not significantly improve
- time spent in the target annulus ([1]; 10 mg/kg/day i.p., retention trial): effectivness of the 10 mg/kg/day levetiracetam treatment was also seen
- memory as compared to vehicle-treated controls (time in target quadrant) ([1]; 10 mg/kg/day i.p., retention trial 24 h after training): significantly improved memory
- time spent in the target quadrant, percentage of total swimming time ([1]; 10 mg/kg/day i.p., retention trial 24 h after two training days): approximately 35%
